Experimental data as given in patent US20220024921A1, “1,3,4-OXADIAZOLONE COMPOUND AND PHARMACEUTICAL” (NIPPON SHINYAKU CO., LTD., priority 2018, published 2022).

How the values were obtained:
[1] = target: PIM1 transgenic cells (Ba/F3) (Homo sapiens, UniProt P11309); assay: Proliferation inhibitory effect on PIM1 transgenic cells; format: cell-based, mouse; conditions: proliferation inhibition, 72 hours, Cell Counting Kit-8, read-out: PIM1 IC50
In short: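 Mouse Ba/F3 pro-B cells were retrovirally transduced with human PIM1 so that their proliferation depends on PIM1. Cells were treated with compound at 1–10000 nM final for 72 h, then read by CCK-8 (OD450−OD650). Inhibition was set against DMSO (0%) and no-cell blank (100%), and IC50 was obtained by two-parameter logistic regression.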

[2] = target: T1, PIM1 serine/threonine kinase (Homo sapiens, UniProt P11309); assay: PIM1 serine/threonine kinase inhibitory effect; format: biochemical; conditions: PIM1 serine/threonine kinase activity; ATP 40 μM; 30° C., 30 minutes
T1 construct: purchased Carna Bioscience, Inc
T1 sequence (P11309 whole entry): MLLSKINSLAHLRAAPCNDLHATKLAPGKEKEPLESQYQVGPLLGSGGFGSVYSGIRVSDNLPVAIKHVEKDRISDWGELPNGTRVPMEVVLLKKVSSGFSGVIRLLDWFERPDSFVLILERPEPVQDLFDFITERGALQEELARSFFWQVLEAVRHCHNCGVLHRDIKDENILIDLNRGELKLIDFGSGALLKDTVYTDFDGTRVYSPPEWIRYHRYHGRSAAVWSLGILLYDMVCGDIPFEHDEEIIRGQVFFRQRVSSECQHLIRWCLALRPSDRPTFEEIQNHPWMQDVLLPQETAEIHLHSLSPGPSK
In short: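 Compounds were tested in duplicate from 0.01 to 10000 nM final against PIM1 kinase (0.15 μg/ml). The reaction ran for 30 minutes at 30° C with 40 μM ATP and 0.5 μM biotin-tagged substrate at pH 7.0. Phosphorylation was read by time-resolved FRET (OD665/OD620) after 1 h; IC50 by non-linear fit.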

[3] = target: PIM2 transgenic cells (Ba/F3) (Homo sapiens, UniProt Q9P1W9); assay: Proliferation inhibitory effect on PIM2 transgenic cells; format: cell-based, mouse; conditions: proliferation inhibition, 72 hours, Cell Counting Kit-8, read-out: PIM2 IC50
Chain of PIM2 transgenic cells (Ba/F3) (Q9P1W9 whole entry, stated change not applied): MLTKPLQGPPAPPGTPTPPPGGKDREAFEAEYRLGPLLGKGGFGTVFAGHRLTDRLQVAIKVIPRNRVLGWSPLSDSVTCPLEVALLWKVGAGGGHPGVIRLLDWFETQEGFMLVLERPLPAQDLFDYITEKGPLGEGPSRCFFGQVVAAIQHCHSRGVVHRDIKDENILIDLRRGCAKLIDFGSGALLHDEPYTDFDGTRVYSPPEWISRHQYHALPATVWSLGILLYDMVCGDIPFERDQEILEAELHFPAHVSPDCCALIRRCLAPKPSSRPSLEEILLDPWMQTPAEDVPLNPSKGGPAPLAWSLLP
Text: Human PIM1, 2, and 3 genes were inserted into the multi-cloning sites of retrovirus expression vectors pMYs-IRES-GFP, respectively, to prepare gene transfer vectors. Then, each gene transfer vector was introduced into packaging cells PLAT-E derived from a human fetal kidney cell line in the logarithmic growth phase, using a transfection reagent (FuGENE6, Promega Corporation). Since the culture supernatant of PLAT-E after gene transfer contained virus particles for gene transfer, the culture supernatant was collected and used as a medium for gene transfer. The medium for gene transfer was added to a plate coated with RetroNectin, and the plate was incubated to attach the virus particles to the plate. Then, a mouse pro-B cell line Ba/F3 in the logarithmic growth phase was seeded on the plate and infected with the virus to prepare PIM1, 2, or 3 transgenic cells that proliferate in a PIM 1, 2, or 3-dependent manner. The expression of PIM1, 2, or 3 protein in each cell was confirmed by Western blotting.
Each test substance was prepared to 10 mM with dimethylsulfoxide (DMSO), and diluted with DMSO so as to have concentrations of 3000, 1000, 300, 100, 30, 10, 3, and 1 μM. Moreover, each dilution was further diluted 10-fold with distilled water to prepare a test substance solution.
PIM1, 2, 3-expressing cells were seeded on a 96-well plate, and each test substance solution prepared the next day was added such that final concentrations were 10000, 3000, 1000, 300, 100, 30, 10, 3, and 1 nM. 72 hours after the addition, 10 μL of Cell Counting Kit-8 (DOJINDO LABORATORIES) was added to each well. After incubation for 1 to 4 hours, absorbance OD450 at 450 nm was measured. In addition, absorption OD650 at 650 nm as a reference wavelength was measured.
OD450-OD650 for each condition was calculated, and then the inhibition rates when OD450-OD650 of negative control (DMSO only) and OD450-OD650 of Blank (without cells) were set to 0% and 100%, respectively, were calculated. Then, non-linear regression analysis was performed for logarithmic dose and inhibition rate using a two-parameter logistic model to estimate IC50 values.
For the compounds with the following Example numbers, in addition to the above proliferation inhibitory effect on PIM1 transgenic cells, the proliferation inhibitory effect on PIM2 transgenic cells and the proliferation inhibitory effect on PIM3 transgenic cells were calculated as IC50.

[4] = target: T2, PIM3 serine/threonine kinase (Homo sapiens, UniProt Q86V86); assay: PIM3 serine/threonine kinase inhibitory effect; format: biochemical; conditions: PIM3 serine/threonine kinase activity; ATP 10 μM; 30° C., 30 minutes
T2 construct: purchased Carna Bioscience, Inc

[5] = target: T3, PIM2 serine/threonine kinase (Homo sapiens, UniProt Q9P1W9); assay: PIM2 serine/threonine kinase inhibitory effect; format: biochemical; conditions: PIM2 serine/threonine kinase activity; ATP 2 μM; 30° C., 30 minutes
T3 construct: purchased Carna Bioscience, Inc
T3 sequence (Q9P1W9 whole entry): as the sequence (Q9P1W9 whole entry, stated change not applied) above

Chain of PIM1 transgenic cells (Ba/F3) (P11309 whole entry, stated change not applied): as the sequence (P11309 whole entry) above

Row | Compound | GI50 [1] [nM] | IC50 [2] [nM] | GI50 [3] [nM] | IC50 [4] [nM] | IC50 [5] [nM]
1 | C[C@H](Nc1cc(-c2n[nH]c(=O)o2)cc(F)c1OC(F)(F)F)C1CCNCC1.Cl [Example 202, 5-[3-fluoro-5-{[(1S)-1-(piperidin-4-yl)ethyl]amino}-4-(trifluoromethoxy)phenyl]-1,3,4-oxadiazol-2(3H)-one hydrochloride] | 26 | 1.5 | 790 |  | 
2 | C[C@H](Nc1cc(-c2n[nH]c(=O)o2)cc(F)c1C(F)(F)F)C1CCNCC1.Cl [Example 75, 5-[3-fluoro-5-{[(1S)-1-(piperidin-4-yl)ethyl]amino}-4-(trifluoromethyl)phenyl]-1,3,4-oxadiazol-2(3H)-one hydrochloride] | 24 | 1.4 | 620 | 10 | 2.3
